Earlier results in patent publication US10481151B2, “Isolation of pulmonary arterial endothelial cells from patients with pulmonary vascular disease and uses thereof” (Allegheny-Singer Research Institute, priority 2012, dated 2019).

Conditions: short half life, so the drug must be administered intravenously over a prolonged time frame

Half life, about 6 minutes:
CCCCC[C@H](O)/C=C/[C@@H]1[C@H]2C/C(=C/CCCC(=O)O)O[C@H]2C[C@H]1O [epoprostenol], CC#CCC(C)[C@H](O)/C=C/[C@@H]1[C@H]2C/C(=C/CCCC(=O)O)C[C@H]2C[C@H]1O (stereo partly drawn) [iloprost], CCCCC[C@H](O)CC[C@@H]1[C@H]2Cc3cccc(OCC(=O)O)c3C[C@H]2C[C@H]1O [treprostinil]
